Among the data in PubChem BioAssay (NCI) are GI50 and TGI values, retold here.

Holding throughout (test): growth of human tumour cells (NCI), 48 h
Test [1] deals with A498 renal.
Test [2] concerns HCC-2998 colon.
Test [3] relates to K-562 leukemia.
Test [4] concerns MALME-3M melanoma.
Test [5] has as its system NCI-H23 lung.
In test [6] the test system is PC-3 prostate.
The subject of test [7] is SK-OV-3 ovarian.
In test [8] the test system is UACC-62 melanoma.

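How tested: cells in 96-well plates exposed to compound for 48 hours at five concentrations. The concentration for 50% growth inhibition is given as GI50. TGI marks complete inhibition of growth.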

Consider `COc1cc2ncnc(Oc3ccc(NC(=O)Nc4ccc(CN5CCOCC5)c(C(F)(F)F)c4)c4ccccc34)c2cc1OC`, for which the GI50 in test [1] was 0.0424 µM; in test [2], 4.8 µM; in test [4], 0.302 µM; in test [5], 0.785 µM; in test [6], 1.75 µM; in test [7], 0.254 µM. In addition, the GI50 in test [8] is 0.637 µM. In addition, the TGI in test [1] came out at 0.584 µM; in test [2] it was 18.8 µM; in test [3], 1.5 µM; in test [4], 1.54 µM; in test [5], 4.16 µM; in test [6], 9.36 µM. The figures for the TGI in test [7] and in test [8] were 1.26 µM and 3 µM, respectively.

`CC(C)(C)NCC(O)c1ccccc1Cl` (stereo not given): the GI50 in test [1], in test [2], in test [3], in test [4], in test [5] and in test [6] was above 100 µM in each case. For the same compound, the GI50 in test [7] and in test [8] was above 100 µM in each case. The TGI in test [1], in test [2], in test [3], in test [4], in test [5] and in test [6] was above 100 µM each time. The TGI in test [7] and in test [8] was above 100 µM throughout.

With `C=C1C(=O)O[C@@H]2/C=C(/C)[C@@H](OC(C)=O)C[C@@H](O)/C(C)=C\[C@@H](OC(=O)[C@]3(C)O[C@@H]3C)[C@@H]12`, the TGI in test [1] amounted to 32.3 µM; in test [2], 34.5 µM; in test [3], 17.5 µM; in test [4], 11.6 µM; in test [5] it was 35.6 µM; in test [6], 32.3 µM. The TGI in test [7] was above 100 µM; in test [8], 31.9 µM.

`Cc1cc2nc3c(C#N)c(C)c(CCCl)c(Cl)n3c2cc1C`: the TGI came to 7.64 µM in test [1]; 6.23 µM in test [2]; 6.63 µM in test [3]; 9.28 µM in test [4]; 5.29 µM in test [5]; 12.4 µM in test [6]. The TGI was above 56.6 µM in test [7] and 4.12 µM in test [8].

With `C[C@]12CC[C@H]3[C@@H](CC[C@]4(O)C[C@@H](O)CC[C@]34C=O)[C@@]1(O)CC[C@@H]2C1=CC(=O)OC1`, the TGI in test [1] was 1.93 µM; in test [2], 7.13 µM; in test [3], above 100 µM; in test [4], 2.03 µM; in test [5] it was 1.12 µM; in test [6], 4.56 µM. Moreover, the TGI in test [7] came to 2.79 µM; in test [8] it was 3.38 µM.

With `COc1cc2c(cc1OCC(=O)Nc1ccc(Cl)cc1C(=O)c1ccccc1Cl)N=CC1CCCN1C2=O` (stereo not given), the GI50 is 12.3 µM in test [1]; 13.4 µM in test [2]; 4.23 µM in test [3]; 20.1 µM in test [4]; 13.6 µM in test [5]; 12.3 µM in test [6]. In addition, the GI50 in test [7] was 3.08 µM; in test [8], 15.2 µM. Besides, the TGI in test [1] is 24.9 µM; in test [2] it was 34.3 µM; in test [3] it was 19.9 µM; in test [4], 37 µM; in test [5] it was 30.5 µM; in test [6] it was 33.2 µM. The TGI was found to be 12 µM in test [7] and 29.2 µM in test [8].

For `Cc1cc(OCc2ccc(C(F)(F)F)cc2)c2c(c1)C(=O)C=C(NCCN1CCCC1)C2=O`, the GI50 is 2.69 µM in test [1]; 1.87 µM in test [2]; 2.41 µM in test [3]; 2.09 µM in test [4]; 4.92 µM in test [5]; 5.36 µM in test [6]. In addition, the GI50 in test [7] is 3.45 µM; in test [8], 1.82 µM. For the same compound, the TGI stood at 12.8 µM in test [1]; 3.46 µM in test [2]; 6.18 µM in test [3]; 3.95 µM in test [4]; 18.7 µM in test [5]; 19.5 µM in test [6]. In addition, the TGI in test [7] came out at 10.6 µM; in test [8], 3.51 µM.

Turning to `CC(=O)OC1CC2(C)C(=CC1C1SCCS1)CCC1C2CCC2(C)C(OC(C)=O)CCC12` (stereo not given), the TGI in test [1], in test [3], in test [4], in test [5], in test [6] and in test [7] was above 100 µM each time. In test [8], this compound gave a TGI above 100 µM.

For the compound `[N-]=[N+]=C(C(=O)CN1CCCC1=O)S(=O)(=O)c1ccccc1`, the TGI in test [2], in test [3], in test [4], in test [5], in test [6] and in test [8] was above 100 µM throughout.

Consider `COc1ccc(C(=O)/C=C/c2ccc(OCc3cccc(C(F)(F)F)c3)c(OC)c2)cc1OC`, for which the GI50 in test [1] is 207 µM; in test [2] it was 131 µM; in test [4] it was 271 µM; in test [5] it was 46.7 µM; in test [6] it was 61.4 µM; in test [7], 221 µM. Also, in test [8], the GI50 is 52.2 µM. The TGI in test [1], in test [2], in test [4], in test [5], in test [6] and in test [7] was above 1000 µM throughout. Moreover, the TGI in test [8] is above 1000 µM.

`CCN1CCN(c2ccc(NC(=O)Nc3nc4ccc(-c5ccccc5OC)cc4s3)cc2)CC1`: the GI50 in test [1] was 1.8 µM; in test [2], 1.83 µM; in test [4], 1.71 µM; in test [5], 1.67 µM; in test [6], 1.79 µM; in test [7] it was 1.79 µM. For the same compound, in test [8], the GI50 was 1.87 µM. In addition, the TGI in test [1] came to 3.61 µM; in test [2], 3.39 µM; in test [4] it was 3.34 µM; in test [5], 3.65 µM; in test [6] it was 3.47 µM; in test [7], 3.55 µM. Moreover, in test [8], the TGI worked out at 3.45 µM.

For the compound `CC1=C(CCC(C)CO)O[C@H]2C[C@H]3[C@@H]4CC[C@H]5C[C@@H](O)CC[C@]5(C)[C@H]4CC(=O)[C@]3(C)[C@@H]12` (stereo not given in full), the TGI in test [1] is 44 µM; in test [3], 40.7 µM; in test [4], 57.1 µM; in test [5], 36.6 µM; in test [6] it was 21.2 µM; in test [7], 43.4 µM. Further, the TGI in test [8] amounted to 18.1 µM.
